Test results from US4404230A, “4-Hydroxy-1,2-Benzisothiazol-3(2H)-one-1,1-dioxides and salts thereof” (priority 1980, dated 1983).

What was measured:
[1] = Determination of water-solubility; format: physicochemical
[2] = Acid-stability in 0.1 N hydrochloric acid; format: physicochemical; settings: 1% in 0.1 N hydrochloric acid, room temperature, 27 days
Protocol: For the stability test, substance B at a concentration of 1% was dissolved in 0.1 N hydrochloric acid and kept at room temperature for 27 days. […] The solid substance was furthermore tested in daylight and at 60° C. in the absence and in the presence of light for 4 weeks.

mice [3] = experiment: Effect on motility of mice (sedative and stimulating effect); format: in vivo, Chbb:NMRI-mice; settings: 200 mg/kg p.o.; for % motility: vs control
Protocol: Eight female Chbb:NMRI-mice (SPF) having a body weight from 20 to 26 g were tested in light beam cages after oral administration of the test compound in a suspension of 1% tylose. 30, 90 and 150 minutes after administration of the test compound, their motility was measured for 5 minutes each; a control group received only the solvent (tylose:carboxymethyl cellulose). The change in motility, given in percent with regard to that of the control group, was determined.

rats [4] = experiment: Effect on motility of rats (sedative or stimulating effect); format: in vivo, Chbb:THOM-rats; settings: 100 mg/kg p.o.
Protocol: In analogy to the method described by Fuhrer and Feldhofen (Arzneimittel-Forschung 11, 1027, 1961) substance B was tested on 6 female Chbb:THOM-rats (SPF) having a body weight of 160-190 gm, after administration of 100 mg/kg p.o. in a suspension of 1% tylose. The motility of the rats in cages was measured for 30 minutes one hour after administration of the test compound. A control group received only tylose. The change in motility given in percent with regard to that of the control group was determined.

mice [5] = experiment: Effect on reserpine-hypothermia in mice; format: in vivo, Chbb:NMRI-mice
Protocol: In analogy to Askew [Life Sci. 2, 275, (1963)] hypothermia was induced by s.c. administration of 3 mg/kg of reserpine in male Chbb:NMRI-mice (SPF) having a body weight of 20-26 gm. […] A control group received only the solvent p.o.; 1 to 4 hours after administration the temperature was measured every hour. The values given in the table are at average temperature values ±SD.

anesthetized cats = experiment: Effect on the blood circulation in anesthetized cats; format: in vivo; settings: 10 mg/kg i.v.
Protocol: In 3 adult anesthetized cats the following parameters were measured:
The arterial blood pressure in the Arteria carotis by means of a Statham pressure transducer;
The heart rate by means of a Grass-tachograph;
The respiration rate by means of a Fleisch pneumotachograph;
10 mg/kg of substance B as a solution in aqua dist. were administered i.v.

[6] = test system: Escherichia coli ATCC 9637; experiment: Bacteriostasis, serial dilution test; format: cell-based; settings: 320 μg/ml
Protocol: (§1) Substance B was tested with regard to its bacteria- and fungi-inhibiting effect by the serial dilution test and agar diffusion test.

[7] = test system: Pseudomonas aeruginosa Hbg.; experiment: Bacteriostasis, serial dilution test; format: cell-based; settings: 320 μg/ml
Protocol: as §1

Sc. pyogenes ATCC 8688 = experiment: Bacteriostasis, serial dilution test; format: cell-based; settings: 320 μg/ml
Protocol: as §1

[8] = test system: Serratia marcescens ATCC 13880; experiment: Bacteriostasis, serial dilution test; format: cell-based; settings: 320 μg/ml
Protocol: as §1

[9] = test system: Staphylococcus aureus SG 511; experiment: Bacteriostasis, serial dilution test; format: cell-based; settings: 320 μg/ml
Protocol: as §1

Streptococcus Aronson = experiment: Bacteriostasis, serial dilution test; format: cell-based; settings: 320 μg/ml
Protocol: as §1

[10] = test system: Serratia marcescens ATCC 13880; experiment: Bacteriostasis, agar diffusion test; format: cell-based; settings: 16,000 μg/ml
Protocol: as §1

Aspergillus niger = experiment: Fungistasis, agar diffusion test; format: cell-based; settings: 16,000 μg/ml
Protocol: as §1

[11] = test system: Candida albicans ATCC 10231; experiment: Fungistasis, agar diffusion test; format: cell-based; settings: 16,000 μg/ml
Protocol: as §1

[12] = test system: Trychophyton mentagrophytes ATCC 9129; experiment: Fungistasis, agar diffusion test; format: cell-based; settings: 16,000 μg/ml
Protocol: as §1

rats [13] = experiment: Effect on diuresis in water-loaded rats; format: in vivo, Chbb:THOM-rats; settings: for Cl^- excretion / K^+ excretion / Na^+ excretion / Urine: 5 hours
Protocol: Male Chbb:THOM-rats (SPF) having a body weight of 180-210 gm were kept away from food with free access to water for 24 hours before the test. Substance B was administered orally at dosages of 50, 100 and 200 mg/kg in aqua dist. solution of the rate of 1 ml/100 gm body weight to 6 animals/dose. Additionally, 4 ml water/100 gm body weight were administered orally. A control group received only the solvent and the same additional amount of water.
Five hours after treatment, the excreted volume of urine of each group was measured, and the concentration of Na^+, K^+ and Cl^- was determined photometrically and complexometrically.

eye of the rabbit = experiment: Local compatibility in the eye of the rabbit (mucosa compatibility); format: in vivo
Description: Groups of 4 rabbits each of both sexes were given 1 drop of a 1% solution of substance B in aqua dist. into the conjunctival sack of the eye. […] The second eye of each animal served as control.

rats [14] = experiment: Test for subacute toxicity in the rat; format: in vivo, Chbb:Thom-rats; settings: 750 mg/kg daily, 5 weeks
Protocol: The test was carried out on 10 male and 10 female Chbb:Thom-rats. During a period of 5 weeks 750 mg/kg of substance B were administered to the animals daily. […] After the 5 weeks the animals were killed, and the following organs were dissected for histological examination: heart, lungs, liver, spleen, suprarenals, brain, kidney and pancreas.

[15] = vs values before administration, N = 3

## O=C1NS(=O)(=O)c2cccc(O)c21.[Na]
[1]
  solubility: > 1 gm/10 ml of water
  water-solubility (in words): easily soluble in water
[2]
  stability in acid medium: No changes could be detected
Mice [3]
  effect on motility of mice (in words): did not affect the motility of mice
Mice [3]; 30-35 min
  Motility of mice: 92 ± 21 contacts/animal
  % motility: 102%
Mice [3]; 90-95 min
  Motility of mice: 84 ± 28 contacts/animal
  % motility: 101%
Mice [3]; 150-155 min
  Motility of mice: 49 ± 17 contacts/animal
  % motility: 72%
Rats [4]
  effect on motility of rats (in words): does not affect the motility of the rats
Rats [4]; 60-90 min
  Motility of rats: 235 ± 58 contacts/animal
Rats [4]; 60-90 min, vs control
  % motility: 113%
Mice [5]; 100 mg/kg p.o., 1 hour
  body temperature: 26.0 °C
Mice [5]; 100 mg/kg p.o., 2 hours
  body temperature: 26.7 °C
Mice [5]; 100 mg/kg p.o., 3 hours
  body temperature: 26.6 °C
Mice [5]; 100 mg/kg p.o., 4 hours
  body temperature: 26.8 °C
Mice [5]; 400 mg/kg p.o. [sic], 1 hour
  body temperature: 24.0 °C
Mice [5]; 400 mg/kg p.o. [sic], 2 hours
  body temperature: 24.7 °C
Mice [5]; 400 mg/kg p.o. [sic], 3 hours
  body temperature: 25.3 °C
Mice [5]; 400 mg/kg p.o. [sic], 4 hours
  body temperature: 25.9 °C
Mice [5]; 40 and 100 mg/kg p.o.
  effect on reserpine-induced hypothermia (in words): does not show an effect on hypothermia in mice induced by reserpine
Anesthetized cats
  effect on arterial blood pressure, heart rate and respiration rate (in words): does not show any effect on the arterial blood pressure, the heart rate and the respiration rate
Anesthetized cats; [15]
  Change in % blood pressure: +1%
  Change in % heart rate: -1%
  Change in % respiration rate: -2%
[6]
  inhibiting effect: did not show any inhibiting effect
[7]
  inhibiting effect: did not show any inhibiting effect
Sc. pyogenes ATCC 8688
  inhibiting effect: did not show any inhibiting effect
[8]
  inhibiting effect: did not show any inhibiting effect
[9]
  inhibiting effect: did not show any inhibiting effect
Streptococcus Aronson
  inhibiting effect: did not show any inhibiting effect
[10]
  inhibiting effect: did not show any inhibiting effect
Aspergillus niger
  inhibiting effect: did not show any inhibiting effect
[11]
  inhibiting effect: did not show any inhibiting effect
[12]
  inhibiting effect: did not show any inhibiting effect
Rats [13]; 50 mg/kg p.o.
  Cl^- excretion: 616.4 Microval/kg
  K^+ excretion: 456.6 Microval/kg
  Na^+ excretion: 456.6 Microval/kg
  Urine: 45.7 mL/kg
Rats [13]; 100 mg/kg p.o.
  Cl^- excretion: 325.5 Microval/kg
  K^+ excretion: 321.5 Microval/kg
  Na^+ excretion: 401.9 Microval/kg
  Urine: 40.2 mL/kg
Rats [13]; 200 mg/kg p.o.
  Cl^- excretion: 535.7 Microval/kg
  K^+ excretion: 425.1 Microval/kg
  Na^+ excretion: 467.6 Microval/kg
  Urine: 42.5 mL/kg
Rats [13]; 50, 100 and 200 mg/kg p.o.
  effect on diuresis (in words): does not show any effect on diuresis in rats
Eye of the rabbit; 1% solution
  change in the pupil: no change in the pupil
  irritation of the conjunctiva: No irritation of the conjunctiva
Eye of the rabbit; 10%
  change in the pupil: no change in the pupil
  irritation of the conjunctiva: No irritation of the conjunctiva
Eye of the rabbit; rabbit, in vivo
  incompatibility when dropped into the eye (in words): does not show any incompatibility
Rats [14]
  behavior: normal behavior
  spontaneous deaths: No spontaneous deaths could be observed
Rats [14]; heart, lungs, liver, spleen, suprarenals, brain, kidney, pancreas
  histological examination of organs: did not show any pathological findings
